As a reminder, the IC50 is the concentration needed to halve the response being measured.

What all share (type): biochemical
In assay [1] the target is T1, GST-tagged recombinant full-length human Pim-2 (Homo sapiens, UniProt Q9P1W9).
T1 construct: GST-tagged recombinant full-length human Pim-2; GST
Description: PIM-2 Assay (as Example A). The conditions noted are these: averaged IC50; 4 μM ATP, 1.0 μM PIM2tide, 1.5 nM Pim-2. The method in brief:
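Radiometric filter-binding assay: GST-tagged full-length human Pim-2 (1.5 nM) phosphorylates 1.0 μM PIM2tide with 4 μM [γ-33P]ATP for 60 min at 22 °C in pH 7.4 MOPS buffer, 2% DMSO. 10-point 3-fold dilutions from 10 μM top dose; IC50 from 4-parameter fit of percent of control.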

The target in the next assay is recombinant rat PIM-3 (Rattus norvegicus, UniProt O70444). The experiment in a line: PIM-3 Assay (as Example A). The settings on record: averaged IC50; 30 μM ATP, 3.75 μM PIM2tide, 0.5 nM PIM-3. Summed up:
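Recombinant rat PIM-3 (0.5 nM) with 3.75 μM PIM2tide and 30 μM [γ-33P]ATP in MOPS pH 7.4 buffer, 60 min at 22 °C; labelled peptide captured on phosphocellulose filters and counted by scintillation. 10-point curve (top dose 10 μM, 2% DMSO); IC50 from 4-parameter fit of percent of control.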

The next assay addresses PIM-1 (Homo sapiens, UniProt P11309). The experiment in a line: Enzyme PIM-1 Assay ([33P]ATP incorporation into PIM2tide, filter plate). The settings on record: averaged IC50; 35 μM ATP, 7.5 μM PIM2tide, 0.25 nM PIM-1, 60 min at 22° C. Summed up:
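Radiometric assay: 0.25 nM PIM-1 phosphorylates 7.5 μM PIM2tide with 35 μM [γ-33P]ATP in 20 mM MOPS pH 7.4, 10 mM MgCl2, 1 mM DTT, 0.005% Tween-20, 60 min at 22 °C. Product captured on P81 filters, scintillation counted; 10-point 3-fold curve from 10 μM top, 2% DMSO, IC50 by 4-parameter logistic fit of POC.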

Molecules are shown by their SMILES. Structures can show the parent of a compound that is named as a salt.

T1 sequence (Q9P1W9 whole entry): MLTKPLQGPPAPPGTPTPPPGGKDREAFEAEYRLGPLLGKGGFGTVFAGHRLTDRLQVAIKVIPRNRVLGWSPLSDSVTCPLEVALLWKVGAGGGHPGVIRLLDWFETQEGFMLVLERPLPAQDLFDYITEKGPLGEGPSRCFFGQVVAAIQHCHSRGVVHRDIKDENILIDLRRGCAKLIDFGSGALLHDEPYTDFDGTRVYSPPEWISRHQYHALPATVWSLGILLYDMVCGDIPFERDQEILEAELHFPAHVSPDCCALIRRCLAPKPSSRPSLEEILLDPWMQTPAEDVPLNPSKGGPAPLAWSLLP
PIM-1, sequence (P11309 whole entry, species assumed): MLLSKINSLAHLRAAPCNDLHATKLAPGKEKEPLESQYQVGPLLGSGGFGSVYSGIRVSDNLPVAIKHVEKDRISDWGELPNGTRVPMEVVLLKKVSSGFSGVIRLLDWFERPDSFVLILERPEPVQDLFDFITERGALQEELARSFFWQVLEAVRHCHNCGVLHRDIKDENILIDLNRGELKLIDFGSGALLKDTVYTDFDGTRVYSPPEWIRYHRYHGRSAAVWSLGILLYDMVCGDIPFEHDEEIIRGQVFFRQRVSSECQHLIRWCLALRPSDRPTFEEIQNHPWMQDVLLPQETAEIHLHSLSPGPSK

`CC(C)NC(=O)c1ccc2ccc(-c3nnc4ccc([C@H](N5CC[C@H](N)C5)C(F)(F)F)cn34)nc2c1` [Example 48, 2-(6-((S)-1-((S)-3-aminopyrrolidin-1-yl)-2,2,2-trifluoroethyl)-[1,2,4]triazolo[4,3-a]pyridin-3-yl)-N-isopropylquinoline-7-carboxamide dihydrochloride]: the values for the 50% inhibitory concentration (IC50) (in assay [1]; at recombinant rat PIM-3; on PIM-1) were greater than 100 nM, 1.9 nM and 1.41 nM, respectively.
In the same order, the values of `CC(C)Oc1ccc2ccc(-c3nnc4ccc([C@@H](N5CC[C@H](N)C5)C(F)(F)F)cn34)nc2c1` [Example 142, (S)-1-((R)-2,2,2-trifluoro-1-(3-(7-isopropoxyquinolin-2-yl)-[1,2,4]triazolo[4,3-a]pyridin-6-yl)ethyl)pyrrolidin-3-amine dihydrochloride] are 44 nM, 0.5 nM and 0.09 nM.
In the case of `COCCc1ccc2ccc(-c3nnc4ccc([C@H](N5CC[C@](C)(N)C5)C(F)(F)F)cn34)nc2c1` [Example 300, (S)-3-methyl-1-((S)-2,2,2-trifluoro-1-(3-(7-(2-methoxyethyl)quinolin-2-yl)-[1,2,4]triazolo[4,3-a]pyridin-6-yl)ethyl)pyrrolidin-3-amine dihydrochloride], the 50% inhibitory concentration (IC50) in assay [1] turned out to be 64 nM; on recombinant rat PIM-3, 0.4 nM; against PIM-1, 0.36 nM.
Consider `FC(F)(F)[C@@H](c1ccc2nnc(-c3ccc4ccc(Br)cc4n3)n2c1)N1C[C@@H]2C[C@H]1CN2` [Example 68, 2-(6-((R)-1-(1S,4S)-2,5-diazabicyclo[2.2.1]heptan-2-yl)-2,2,2-trifluoroethyl)-[1,2,4]triazolo[4,3-a]pyridin-3-yl)-7-bromo quinoline dihydrochloride], for which the concentration for half-maximal inhibition (IC50) in assay [1] is greater than 100 nM; at recombinant rat PIM-3, 14 nM; at PIM-1, 4.09 nM.
The corresponding values for `COc1cc2nc(-c3nnc4ccc([C@@H](N5CC[C@H](N)C5)C(F)(F)F)cn34)ccc2cc1F` [Example 113, (S)-1-((R)-2,2,2-trifluoro-1-(3-(6-fluoro-7-methoxyquinolin-2-yl)-[1,2,4]triazolo[4,3-a]pyridin-6-yl)ethyl)pyrrolidin-3-amine hydrochloride] are greater than 100 nM, 2.3 nM and 0.05 nM.
In the same order, the values of `N[C@H]1CCN([C@H](c2ccc3nnc(-c4ccc5cc(F)cc(OC(F)F)c5n4)n3c2)C(F)(F)F)C1` [Example 228, (S)-1-((R)-1-(3-(8-(difluoromethoxy)-6-fluoroquinolin-2-yl)-[1,2,4]triazolo[4,3-a]pyridin-6-yl)-2,2,2-trifluoroethyl)pyrrolidin-3-amine dihydrochloride] are 916 nM, 3.8 nM and 0.79 nM.
In the same order, the values of `C[C@]1(N)CCN([C@@H](c2ccc3nnc(-c4ccc5ccc(CCO)cc5n4)n3c2)C(F)(F)F)C1` [Example 317, 2-(2-(6-((S)-1-((S)-3-amino-3-methylpyrrolidin-1-yl)-2,2,2-trifluoroethyl)-[1,2,4]triazolo[4,3-a]pyridin-3-yl)quinolin-7-yl)ethanol] are 194 nM, 0.4 nM and 0.34 nM.
Turning to `N#Cc1ccc2ccc(-c3nnc4ccc([C@@H](N5CC[C@H](N)C5)C(F)(F)F)cn34)nc2c1` [Example 84, 2-(6-((R)-1-((S)-3-aminopyrrolidin-1-yl)-2,2,2-trifluoroethyl)-[1,2,4]triazolo[4,3-a]pyridin-3-yl)quinoline-7-carbonitrile], the half-maximal inhibitory concentration (IC50) in assay [1] was greater than 100 nM; at recombinant rat PIM-3, 12 nM; at PIM-1 it was 0.73 nM.
In the same order, the values of `CC(C)Oc1cc2nc(-c3nnc4ccc([C@@H](N5CC[C@H](N)C5)C(F)(F)F)cn34)ccc2cc1F` [Example 119, (S)-1-((R)-2,2,2-trifluoro-1-(3-(6-fluoro-7-isopropoxyquinolin-2-yl)-[1,2,4]triazolo[4,3-a]pyridin-6-yl)ethyl)pyrrolidin-3-amine hydrochloride] are 23 nM, 0.9 nM and 0.21 nM.
For the molecule `N[C@H]1CCN([C@H](c2ccc3nnc(-c4ccc5cc(F)cc(OCC(F)(F)F)c5n4)n3c2)C(F)(F)F)C1` [Example 232, (S)-1-((R)-2,2,2-trifluoro-1-(3-(6-fluoro-8-(2,2,2-trifluoroethoxy)quinolin-2-yl)-[1,2,4]triazolo[4,3-a]pyridin-6-yl)ethyl)pyrrolidin-3-amine dihydrochloride], the IC50 is 206 nM in assay [1], 0.8 nM on recombinant rat PIM-3 and 0.2 nM against PIM-1.
In the same order, the values of `CC(C)Oc1cccc2ccc(-c3nnc4ccc([C@H](N5CCC(C)(O)C5)C(F)(F)F)cn34)nc12` (single isomer, unassigned; diastereomer 1) [Example 199] are greater than 1000 nM, 30 nM and 18.7 nM.
In the same order, the values of `COCCOc1ccc2cc(F)c(-c3nnc4ccc(C(N5CC[C@](C)(N)C5)C(F)(F)F)cn34)nc2c1` (stereo in doubt) [Example 327, (S)-3-methyl-1-((R)-2,2,2-trifluoro-1-(3-(3-fluoro-7-(2-methoxyethoxy)quinolin-2-yl)-[1,2,4]triazolo[4,3-a]pyridin-6-yl)ethyl)pyrrolidin-3-amine] are 340 nM, 1.34 nM and 0.42 nM.
In the case of `COCCOc1cc2nc(-c3nnc4ccc([C@H](N5CC[C@](C)(N)C5)C(F)(F)F)cn34)ccc2cc1F` [Example 298, (S)-3-methyl-1-((S)-2,2,2-trifluoro-1-(3-(6-fluoro-7-(2-methoxyethoxy)quinolin-2-yl)-[1,2,4]triazolo[4,3-a]pyridin-6-yl)ethyl)pyrrolidin-3-amine dihydrochloride], the figures for the IC50 (in assay [1]; on recombinant rat PIM-3; on PIM-1) were 59 nM, 0.4 nM and 0.27 nM, respectively.
The corresponding values for `FC(F)(F)C(c1ccc2nnc(-c3ccc4cccc(OCC5CC5)c4n3)n2c1)N1C[C@H]2C[C@@H]1CN2` (stereo partly drawn) [Example 25, 2-(6-(1-((1R,4R)-2,5-diazabicyclo[2.2.1]heptan-2-yl)-2,2,2-trifluoroethyl)-[1,2,4]triazolo[4,3-a]pyridin-3-yl)-8-(cyclopropylmethoxy)quinoline dihydrochloride] are 86 nM, 5.1 nM and 0.8 nM.
For `CC(C)(C)C(=O)Nc1ccc2ccc(-c3nnc4ccc([C@@H](N5CC[C@H](O)C5)C(F)(F)F)cn34)nc2c1` [Example 107, N-(2-(6-((R)-2,2,2-trifluoro-1-((S)-3-hydroxypyrrolidin-1-yl)ethyl)-[1,2,4]triazolo[4,3-a]pyridin-3-yl)quinolin-7-yl)pivalamide], the IC50 is greater than 100 nM in assay [1], 0.9 nM at recombinant rat PIM-3 and 0.48 nM against PIM-1.
In the same order, the values of `CCOCCOc1ccc2ccc(-c3nnc4ccc([C@@H](N5CC[C@H](N)C5)C(F)(F)F)cn34)nc2c1` [Example 274, (S)-1-((R)-1-(3-(7-(2-ethoxyethoxy)quinolin-2-yl)-[1,2,4]triazolo[4,3-a]pyridin-6-yl)-2,2,2-trifluoroethyl)pyrrolidin-3-amine dihydrochloride] are 961 nM, 1.7 nM and 0.4 nM.

(Values after US8889704B2 (Array BioPharma Inc., priority 2011, dated 2014).)
